This note sets out measurements from patent US20040259819A1, “Novel heterocyclic fluoroglycoside derivatives, medicaments containing these compounds, and the use thereof” (Aventis Pharma Deutschland GmbH, priority 2002, published 2004).

The test addresses T1, SGLT (Oryctolagus cuniculus, UniProt P11170).
T1 construct: To prepare brush border membranes from rabbit small intestine, rabbits were sacrificed; from tissue; host or cells: rabbit small intestine mucosa, brush border membrane vesicles (Mg2+ precipitation)
T1 sequence (P11170 1-662): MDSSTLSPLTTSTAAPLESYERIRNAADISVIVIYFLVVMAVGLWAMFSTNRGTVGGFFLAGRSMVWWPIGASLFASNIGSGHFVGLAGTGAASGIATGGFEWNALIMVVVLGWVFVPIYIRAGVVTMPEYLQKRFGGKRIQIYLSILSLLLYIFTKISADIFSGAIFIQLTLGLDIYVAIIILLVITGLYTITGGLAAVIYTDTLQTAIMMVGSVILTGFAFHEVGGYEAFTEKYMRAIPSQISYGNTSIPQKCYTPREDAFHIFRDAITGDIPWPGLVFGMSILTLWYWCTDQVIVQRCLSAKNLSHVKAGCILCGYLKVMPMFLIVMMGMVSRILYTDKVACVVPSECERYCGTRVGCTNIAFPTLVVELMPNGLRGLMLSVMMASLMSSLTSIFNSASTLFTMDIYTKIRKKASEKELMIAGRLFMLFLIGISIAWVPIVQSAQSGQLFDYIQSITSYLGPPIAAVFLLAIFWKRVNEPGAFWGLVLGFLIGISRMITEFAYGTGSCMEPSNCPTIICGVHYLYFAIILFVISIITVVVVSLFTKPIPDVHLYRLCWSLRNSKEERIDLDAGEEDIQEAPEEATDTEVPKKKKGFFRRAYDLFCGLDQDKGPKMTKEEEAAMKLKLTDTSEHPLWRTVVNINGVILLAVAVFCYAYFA
Briefly: Glucose uptake transport assay on rabbit small intestine brush border membrane vesicles. The format is biochemical. The conditions noted are these: uptake of 10 μM [14C]D glucose into rabbit small intestine brush border membrane vesicles, 15 seconds, 30° C., membrane filtration method.

Protocol: Preparation of brush border membrane vesicles from the small intestine of rabbits, rats and pigs
Preparation of brush border membrane vesicles from the intestinal cells of the small intestine was carried out by the so-called Mg^2+ precipitation method. The mucosa of the small intestine was scraped off and suspended in 60 ml of ice-cold Tris/HCl buffer (pH 7.1)/300 mM mannitol, 5 mM EGTA. Dilution to 300 ml with ice-cold distilled water was followed by homogenization with an Ultraturrax (18 shaft, IKA Werk Staufen, FRG) at 75% of the max. power for 2×1 minute, while cooling in ice. After addition of 3 ml of 1M MgCl2 solution (final concentration 10 mM), the mixture is left to stand at 0° C. for exactly 15 minutes. Addition of Mg^2+ causes the cell membranes to aggregate and precipitate with the exception of the brush border membranes. After centrifugation at 3 000×g (5 000 rpm, SS-34 rotor) for 15 minutes, the precipitate is discarded and the supernatant, which contains the brush border membranes, is centrifuged at 26 700×g (15 000 rpm, SS-34 rotor) for 30 minutes. The supernatant is discarded, and the precipitate is rehomogenized in 60 ml of 12 mM Tris/HCl buffer (pH 7.1)/60 mM mannitol, 5 mM EGTA using a Potter Elvejhem homogenizer (Braun, Melsungen, 900 rpm, 10 strokes). Addition of 0.1 ml of 1M MgCl2 solution and incubation at 0° C. for 15 minutes is followed by centrifugation again at 3 000×g for 15 minutes. The supernatant is then centrifuged again at 46 000×g (20 000 rpm, SS-34 rotor) for 30 minutes. The precipitate is taken up in 30 ml of 20 mM Tris/Hepes buffer (pH 7.4)/280 mM mannitol and homogeneously resuspended by 20 strokes in a Potter Elvejhem homogenizer at 1 000 rpm. After centrifugation at 48 000×g (20 000 rpm, SS-34 rotor) for 30 minutes, the precipitate was taken up in 0.5 to 2 ml of Tris/Hepes buffer (pH 7.4)/280 mM mannitol (final concentration 20 mg/ml) and resuspended using a tuberculin syringe with a 27 gauge needle. […]
The uptake of [^14C]-labeled glucose into brush border membrane vesicles was measured by the membrane filtration method. […]

The term IC50 denotes the concentration that gives 50% inhibition. A high value points to weaker potency. The molecule `COc1ccc(Cc2sccc2OC2OC(CO)C(F)C(O)C2O)cc1` (single isomer, unassigned) [Example 1] displayed an IC50 of 4000 nM.

As for `COc1ccc(Cc2sccc2OC2OC(CO)C(F)C(O)C2O)cc1` (single isomer, unassigned) [Example 3], the IC50 is 300 nM.

For the molecule `COc1ccc(Cc2sc3ccccc3c2OC2OC(CO)C(F)C(O)C2O)cc1` (stereo not drawn) [Example 2], inhibition was half-maximal at 400 nM (IC50).
